Source: patent publication US5914351A, “Anti-viral aromatic hydrazones” (Uniroyal Chemical Company, Inc., priority 1997, dated 1999)
Values after ≈ are worked out from the molar mass of the structure shown.

Legend:
Format in all cases: cell-based
[1] = system: HIV-1 IIIB; experiment: Inhibition of HIV-1 induced syncytium formation in CEM cells, HIV-1 IIIB (wild type); conditions: Human immunodeficiency virus 1, CCRF-CEM, 96 h, day 4 post infection
Excerpt: (§1) CEM cells were obtained from the American Tissue Cell Culture Collection (Rockville, Md.). HIV-1 (IIIB) was originally obtained from the culture supernatant of persistently HIV-1-infected H9 cells and was provided by R. C. Gallo and M. Popovic (National Cancer Institute, National Institutes of Health, Bethesda, Md.). The selection and characterization of the HIV-1 RT mutant strains were done as follows: HIV-1/100-Ile ("100-Ile") was selected for resistance against TIBO R82150 as described in Balzarini et al, Virology 192: 246-253 (1993); HIV-1/103-Asn ("103-Asn") was selected for resistance against TIBO R82913 as described in Balzarini et al, Virology 192: 246-253 (1993); HIV-1/106-Ala ("106-Ala") was selected for resistance against nevirapine as described in Balzarini et al, J. Virol. 67: 5353-5359 (1993); HIV-1/138-Lys ("138-Lys") was selected for resistance against TSAO-m^3T as described in Balzarini et al, Virology 192: 246-253 (1993) and Balzarini et al, Proc. Nat. Acad. Sci. U.S.A. 90: 6952-6956 (1993); HIV-1/181-Cys ("181-Cys") was selected for resistance against pyridinone L-697,661 as described in Balzarini et al, Virology 192: 246-253 (1993); and HIV-1/188-His ("188-His") was selected for resistance against HEPT as described in Balzarini et al, Mol. Pharmocol. 44: 694-701 (1993). 188-His was then further converted to HIV-1/188-Leu ("188-Leu") upon further passage in cell culture in the absence of the HEPT.
(§2) CEM cells were suspended at ≈300,000 cells per mL of culture medium and infected with approximately 100 CCID50 (CCID50 being the 50% cell culture infective dose) of HIV-1 (IIIB) or one of the HIV-1 RT mutant strains described above. Then 100 μL of the infected cell suspensions was added to 200 μL microtiter plate wells containing 100 μL of appropriate serial (5-fold) dilutions of the test compounds. The inhibitory effect of the test compounds on HIV-1 induced syncytium formation in CEM cells was examined microscopically on day 4 post infection. The 50% effective concentration (EC50) was defined as the test compound concentration that inhibits syncytium formation in the HIV-1 infected cell cultures by 50%.

[2] = system: HIV-1/138-Lys; experiment: Inhibition of HIV-1 induced syncytium formation in CEM cells, RT mutant 138-Lys; conditions: Human immunodeficiency virus 1, CCRF-CEM, 96 h, read-out: EC50 138-Lys
Excerpt: as §1, §2

[3] = system: HIV-1/181-Cys; experiment: Inhibition of HIV-1 induced syncytium formation in CEM cells, RT mutant 181-Cys; conditions: Human immunodeficiency virus 1, CCRF-CEM, 96 h, read-out: EC50 181-Cys
Excerpt: as §1
as §2, with “The 50% effective concentration (EC50) was defined as the test compound concentration that inhibits syncytium formation in the HIV-1 infected cell cultures by 50%.” left out

[4] = system: HIV-1/106-Ala; experiment: Inhibition of HIV-1 induced syncytium formation in CEM cells, RT mutant 106-Ala; conditions: Human immunodeficiency virus 1, CCRF-CEM, 96 h, read-out: EC50 106-Ala
Excerpt: as §1
as §2, with “The 50% effective concentration (EC50) was defined as the test compound concentration that inhibits syncytium formation in the HIV-1 infected cell cultures by 50%.” left out

[5] = system: HIV-1/100-Ile; experiment: Inhibition of HIV-1 induced syncytium formation in CEM cells, RT mutant 100-Ile; conditions: Human immunodeficiency virus 1, CCRF-CEM, 96 h, read-out: EC50 100-Ile
Excerpt: as §1, with “188-His was then further converted to HIV-1/188-Leu ("188-Leu") upon further passage in cell culture in the absence of the HEPT.” left out

[6] = system: HIV-1/103-Asn; experiment: Inhibition of HIV-1 induced syncytium formation in CEM cells, RT mutant 103-Asn; conditions: Human immunodeficiency virus 1, CCRF-CEM, 96 h, read-out: EC50 103-Asn
Excerpt: as §1, with “188-His was then further converted to HIV-1/188-Leu ("188-Leu") upon further passage in cell culture in the absence of the HEPT.” left out

[7] = system: HIV-1/188-Leu; experiment: Inhibition of HIV-1 induced syncytium formation in CEM cells, RT mutant 188-Leu; conditions: Human immunodeficiency virus 1, CCRF-CEM, 96 h, read-out: EC50 188-Leu
Excerpt: as §1, with “188-His was then further converted to HIV-1/188-Leu ("188-Leu") upon further passage in cell culture in the absence of the HEPT.” left out

| SMILES | EC50 [1] [µg/mL] | EC50 [2] [µg/mL] | EC50 [3] [µg/mL] | EC50 [4] [µg/mL] | EC50 [5] [µg/mL] | EC50 [6] [µg/mL] | EC50 [7] [µg/mL] |
| --- | --- | --- | --- | --- | --- | --- | --- |
| Cc1occc1C(=O)Nc1ccc(Cl)c(C=NN(C)C)c1 [Compound 1] | 0.225 (≈ 0.736 µM) | 1.6 (≈ 5.23 µM) | – | – | – | – | – |
| Cc1occc1C(=S)Nc1ccc(Cl)c(C=NN(C)C)c1 [Compound 2] | 0.008 (≈ 0.0249 µM) | 0.04 (≈ 0.124 µM) | 0.13 (≈ 0.404 µM) | 0.065 (≈ 0.202 µM) | 0.14 (≈ 0.435 µM) | 0.65 (≈ 2.02 µM) | – |
| Cc1occc1C(=O)Nc1ccc(Cl)c(C=NN2CCCC2)c1 [Compound 3] | 0.325 (≈ 0.979 µM) | 1.6 (≈ 4.82 µM) | 1 (≈ 3.01 µM) | 1.3 (≈ 3.92 µM) | – | – | – |
| Cc1occc1C(=S)Nc1ccc(Cl)c(C=NN2CCCC2)c1 [Compound 4] | 0.015 (≈ 0.0431 µM) | 0.08 (≈ 0.23 µM) | 0.1 (≈ 0.287 µM) | 0.1 (≈ 0.287 µM) | 0.33 (≈ 0.949 µM) | 0.34 (≈ 0.977 µM) | 4.5 (≈ 12.9 µM) |
| Cc1occc1C(=S)Nc1ccc(Cl)c(C=NN2CCOCC2)c1 [Compound 5, N-[4-chloro-3-[(4-morpholinylimino)methyl]phenyl]-2-methyl-3-furancarbothioamide] | 0.13 (≈ 0.357 µM) | – | – | – | – | – | – |
